Measurements as given in patent US20190247343A1, “USE OF FENOFIBRIC ACID IN THE TREATMENT OF HEPATIC DISEASES” (GENCOD, priority 2016, published 2019).
Converted amounts (≈) assume the structure as drawn. “Also recorded” adds a separate entry of the source. Values belong to the molecule of their own block, whether it stands above or below them.

Key:
[1] = Solubility at saturation of salts and crystalline forms, buffered solution pH 6.0; type: physicochemical; details: aqueous buffer pH 6.0, after 24 hours of stirring, European Pharmacopoeia criteria
Protocol: The purpose of this example is to determine the solubility characteristics of different crystalline forms and salts of fenofibric acid, with a view to administration by the oral mucosal route, in order to treat or forestall patients of liver diseases, such as fatty liver disease.
The solubilisation kinetics are determined by placing fenofibric acid samples at an excess in an aqueous buffered solution at pH 6.0, equivalent to salivary pH. Samples are taken after 0.5, 1, 2, 4, 6, 12 and 24 hours. They are analysed by HPLC after centrifugation and filtration of the samples on a 0.45 μm PTFE filter.
The samples are received from several Indian and Chinese suppliers. Fenofibric acid form II is obtained from a suspension of fenofibrate (ester) in isopropanol.
The results in terms of solubility at saturation (after 24 hours of stirring) are given in the table below and are expressed as per the criteria of the European Pharmacopoeia in force at the time of the tests. The melting points are obtained by DSC (endothermic peak, onset measurement).

immortalised human cells = assay: In vitro cellular model in NASH/NAFLD: intracellular lipid droplet content; type: cell-based; details: enriched medium, increasing concentrations, 24 hours
Source text: The applicant decided to explore in vitro approaches to test fenofibric acid as a medicinal product inhibiting progression of non-alcoholic fatty liver disease/steatohepatitis. In this field, only a few data obtained in NASH/NAFLD using cellular models have been published, whereas for other liver diseases, the research models and means are more numerous and more studied. In general, immortalised cell lines and primary cell cultures are widely used to develop in vitro models for research. The immortalised primary cells are candidate cells selected for the in vitro study due to the stable phenotype thereof, but also due to a culture method that is simple and standardised to carry out. The immortalised human cells were cultured in an enriched medium containing increasing fenofibric acid concentrations. The purpose of the study consisted of measuring the intracellular lipid droplet content. The entire staining procedure is conducted at ambient temperature while protecting the samples from direct light. The images were acquired with a fluorescence microscope. The intracellular lipid droplet content was determined by labelling. […] This trend is all the more noteworthy at the highest fenofibric acid concentration wherein the quantity and size of the droplets decreased in relation to that observed with the lowest dose.

mouse model of NASH = assay: In vivo mouse model of non-alcoholic steatohepatitis; details: mice on high-fat feed and fructose water, per os once daily
Protocol: Fenofibric acid is studied at 2 doses and administered per os once daily. […] The number of male mice is 60 for the curative part of the study. They follow the normal light cycle, and are divided into enriched ventilated cages, after a one-week acclimatisation period. The mice are fed with high-fat content feed and fructose-enriched tap water. The mice are treated with the references or with the test formulation according to 2 doses, with daily administration per os for about 2 months. […] At different weeks of treatment, blood is collected to measure the blood glucose level, insulin, total cholesterol and triglyceride level, as well as the ALT and AST levels. After the final collection, the mice are sacrificed to measure the total hepatic cholesterol, triglycerides and fatty acid levels. Liver samples are also collected for histological analysis and the NAS score/index.

[2] = In vitro oral penetration study, Franz type diffusion cells; type: in vitro ADME, pig; details: 37° C., different concentrations and pH 4.5-7.4
Protocol: One of the preferred modes of administration is the oral mucous membrane route. In order to achieve this, the applicant prepared fenofibric acid solutions from samples provided by the supplier Harman Finochem (India). The in vitro penetration of the fenofibric acid formulation is evaluated using Franz type diffusion cells at 37° C., a system routinely used to evaluate the in vitro penetration of compounds through the skin, but with the oral mucous membrane as the membrane in this instance.
The applicant chose pig oral tissue because it has a non-keratinised morphology, relatively similar to the human oral epithelium (Gandhi, R. B. and Robinson. Adv Drug Deli Rev, 13:43-74, 1994). […]
The receptor compartment is filled with pH 7.4 buffer at 37° C. and the donor compartment with micronised fenofibric acid solution at 37° C. of different concentrations (from 0.2 mg/ml) with a pH also adjusted to pH 7.4 or a solution of fenofibric acid (0.5 mg/ml) in buffer solutions of different pH (4.5, 6.0, 6.8 and 7.4). Samples are taken from the receptor compartment at a predetermined time interval (2, 5, 10, 15, 30, 60, 90, 120, 150 and 180 minutes), replaced by the same volume of buffer and subsequently analysed using the HPLC method.
The quantity of fenofibric acid presented in the […] compartment is determined as a function of time. […]

[3] = Aqueous phase solubility as a function of pH / medium; type: physicochemical
[4] = Solubility in 50:50 binary mixture with a surfactant; type: physicochemical
[5] = Dissolution kinetics, USP type II paddle; type: physicochemical; details: for fenofibric acid dissolved: FaSSIF and FeSSIF media
Protocol: The applicant studied the dissolution profile of several batches of fenofibric acid received from several suppliers. The starting material batches include different granulometric characteristics including one standard grade (non-micronised) and several micronised batches.
The batches of fenofibric acid were prepared in various pharmaceutical forms including the following excipients: hypromellose, milk protein concentrate, corn starch, Lactose monohydrate (0.4 mg/50 mg of active ingredient), sodium lauryl sulphate as surfactant, magnesium stearate, and talc as a flow agent required during production.
Dissolution tests were carried out on most of the formulation in media such as acetate buffer at […] and purified water. Similarly, the rings were tested in […] media simulating fed and fasting conditions, with addition of enzymes (media referred respectively as FeSSIF and FaSSIF) were also tested after the 50 and 100 mg doses. The USP type II paddle system was retained for the tests with 1000 ml of volume, 37° C. and the samples, taken at 0, 2, 5, 10, 15, 20, 30, 45 and 60 minutes, were analysed by HPLC without replenishing the media.

- Solubility at saturation [1]: Slightly soluble
Structure (SMILES): CC(C)(Oc1ccc(C(=O)c2ccc(Cl)cc2)cc1)C(=O)O [Fenofibric acid form II]

- solubility ([3]; 0.01M sodium lauryl sulphate, aqueous with cosolvent or surfactant or cyclodextrin): 90 µg/mL (≈ 282 µM)
- solubility ([3]; 0.1M sodium lauryl sulphate, aqueous with cosolvent or surfactant or cyclodextrin): 810 µg/mL (≈ 2540 µM)
- solubility ([3]; 0.1N HCl, simulated gastric fluid): 2 µg/mL (≈ 6.27 µM)
- solubility ([3]; aqueous buffer, Phosphate buffer pH = 4.5): 40 µg/mL (≈ 125 µM)
- solubility ([3]; aqueous buffer, Phosphate buffer pH = 5.5): 330 µg/mL (≈ 1040 µM)
- solubility ([3]; aqueous buffer, Phosphate buffer pH = 6.5): 1060 µg/mL (≈ 3330 µM)
- solubility as a function of pH ([3]; greatest at pH values closest to neutrality): increases as a function of pH
- solubility ([3]; purified water, water): 20 µg/mL (≈ 62.7 µM)
- Solubility in water ([4]; surfactant Cremophor EL, 50:50 binary mixture): 56 mg/g
- Solubility in water ([4]; surfactant Cremophor RH40, 50:50 binary mixture): 59 mg/g
- Solubility in water ([4]; surfactant Labrasol, 50:50 binary mixture): 55 mg/g
- Solubility in water ([4]; surfactant Solutol HS15, 50:50 binary mixture): 60 mg/g
- Solubility in water ([4]; surfactant Tween 80, 50:50 binary mixture): 61 mg/g
- fenofibric acid dissolved ([5]; after 10 minutes): over 80%
- fenofibric acid dissolved ([5]; after 30 minutes): entirety
- dissolution of the active ingredient alone ([5]; after 60 minutes, paddle, 1000 ml, 37° C.): totally dissolved
Structure (SMILES): CC(C)(Oc1ccc(C(=O)c2ccc(Cl)cc2)cc1)C(=O)O [fenofibric acid, 2-(4-(4-chlorobenzoyl)phenoxy)-2-methylpropanoic]
- intracellular lipid droplet content (immortalised human cells): dose-dependent fat reduction
- increase in the triglyceride level (mouse model of NASH): significantly inhibit the increase
- increase in the weight of the liver (mouse model of NASH): significantly inhibit the increase
- plasma ALT concentration (mouse model of NASH): decreased substantially
- development of fatty liver disease (macroscopic and microscopic examination of the liver) (mouse model of NASH; about 2 months): prevented the development of fatty liver disease
- plasma ALT concentration (mouse model of NASH; listed as Fenofibric acid): notably reduced
- increase in the fatty liver disease activity score (mouse model of NASH; liver histology): significantly inhibit the increase
- increase in the fibrotic zones (mouse model of NASH; liver histology): significantly inhibit the increase
- penetration through the porcine oral mucous membrane [2]: noteworthy penetration; also recorded: rapidly absorbed
